Key:
[1] = test system: Histamine-induced Granulocyte Independent PPE; experiment: Histamine-induced granulocyte-independent plasma protein extravasation in skin; type: in vivo, guinea-pig
Procedure: (§1) The effect of β2-adrenoreceptor agonists on granulocyte-dependent and independent vascular permeability induced in guinea-pig skin, by intradermal challenge with zymosan and histamine respectively, was evaluated using a modification of the method of Issekutz Lab. Invest .,45 , 435-441(1981).
(§2) Plasma protein extravasation (PPE) was calculated as µl plasma equivalents.

[2] = test system: zymosan-induced PMN cell accumulation in guinea-pig skin; experiment: Zymosan-induced PMN cell accumulation in skin; conditions: for % Inhibition of PMN cell accumulation: together with zymosan 0.2mg.site^-1
[3] = test system: Zymosan-induced Granylocyte-dependent PPE; experiment: Zymosan-induced granulocyte-dependent plasma protein extravasation in skin; type: in vivo, guinea-pig; design: Zymosan-induced Granylocyte-dependent PPE: unit not given here
Procedure: as §1, §2

histamine-induced PPE = experiment: Histamine-induced plasma protein extravasation in the lung; type: in vivo, guinea-pigs
From the text: Briefly, guinea-pigs (male Dunkin Hartley, 300-400g) were given an intracardiac injection of iodinated human serum albumin (0.5µCi) in heparinised saline (10U.ml^-1).

[4] = test system: PAF-induced eosinophil infiltration; experiment: PAF-induced eosinophil infiltration in bronchoalveolar lavage fluid; type: in vivo, guinea-pigs; conditions: inhalation 0.1mg.ml^-1 30 min prior to PAF 100µg.ml^-1; 24 hours after challenge (PAF alone 97.7 ± 18.8, baseline 53.3 ± 12.5)
Procedure: (§3) Briefly, guinea-pigs (male Dunkin Hartley, 300-400g) were exposed to an aerosol of 100µg.ml^-1 E. coli lipopolysaccharide (LPS;026:B6, Sigma Ltd) or 100µg.ml^-1 platelet activating factor (PAF; Sigma Ltd.) for 10 min. […] The total leukocyte count of the bronchoalveolar lavage fluid (BALF) recovered was determined. A cytospin preparation was prepared from the BALF, fixed with methanol, stained with Wright's stain and a differential leukocyte count was carried out.

[5] = test system: LPS-induced neutrophil accumulation; experiment: LPS-induced neutrophil accumulation in bronchoalveolar lavage fluid; type: in vivo, guinea-pigs; conditions: 0.1 mg.ml^-1 aerosol 30 min prior to LPS 100µg.ml^-1; 4 hours after challenge (LPS alone 141.3 ± 33.3, baseline 3.8 ± 1.2)
Procedure: as §3

[6] = Cavia porcellus, PMN, po, read-out: % Inhibition of PMN cell accumulation

In the case of `CC(C)(C)NCC(O)c1ccc(O)c(CO)c1` (stereo not drawn) [salbutamol, reference compound], the “dose required for a comparable effect on granulocyte-independent PPE, relative to salmeterol” value ([1]; compared with salmeterol 10mg.kg^-1 p.o.) is reported as “Approximately 10 fold”, the “inhibitory effect on PMN cell accumulation” value ([2]; 10-100mg.kg^-1 p.o.) is reported as “no significant inhibitory effect” and the “inhibitory effect on zymosan-induced PPE” value ([3]; 10-100mg.kg^-1 p.o.) is reported as “no inhibitory effect”. The ED50 (histamine-induced PPE; Cavia porcellus, po, 0.5 h, p.o., 30 min prior to histamine, read-out: ED50, inhibition of histamine-induced PPE) was 0.02 mg/kg and the “time after which there is substantial loss of activity against histamine induced PPE” value (histamine-induced PPE; equi-effective doses) was 2 h.

`OCc1cc(C(O)CNCCCCCCOCCCCc2ccccc2)ccc1O` (stereo not drawn) [salmeterol, 4-hydroxy-α^1-[[[6-(4-phenylbutoxy)hexyl]amino]methyl]-1,3-benzenedimethanol] was tested, and the BALF eosinophil count [4] was 59.2 ± 19.8 x10^3 cells.ml^-1, the “Histamine-induced Granulocyte Independent PPE” value ([1]; Oral 1.0 mg.kg^-1, 1 hour before histamine 100ng.site^-1) was 9.2 and the “Histamine-induced Granulocyte Independent PPE” value ([1]; Oral 10.0 mg.kg^-1, 1 hour before histamine 100ng.site^-1) was 58.5. The inhibition at 1 mg/kg [2, 6] was 27%, the inhibition at 10 mg/kg [2, 6] was 59% and the “% Inhibition of PMN cell accumulation” value ([2]; Intradermal 10^-8 (nmol.site^-1)) was 51%. For the same molecule, the “% Inhibition of PMN cell accumulation” value ([2]; Intradermal 10^-9 (nmol.site^-1)) was 16%, the “Zymosan-induced Granylocyte-dependent PPE” value ([3]; Intradermal 10^-8 (nmol.site^-1), co-administered with zymosan) was 51.7 and the “Zymosan-induced Granylocyte-dependent PPE” value ([3]; Intradermal 10^-9 (nmol.site^-1), co-administered with zymosan) was 1.8. The “Zymosan-induced Granylocyte-dependent PPE” value ([3]; Oral 1.0 mg.kg^-1, 1 hour before zymosan 0.2mg.site^-1) was 47.0, the “Zymosan-induced Granylocyte-dependent PPE” value ([3]; Oral 10.0 mg.kg^-1, 1 hour before zymosan 0.2mg.site^-1) was 56.0 and the “inhibition of histamine-induced PPE at the highest doses” value (histamine-induced PPE; aerosol, nebuliser concentration 0.001-1mg.ml^-1) was “complete inhibition”. The BALF neutrophil count [5] was 46.8 ± 9.1 x10^3 cells.ml^-1.

Source: patent publication EP1078629A2 (GLAXO GROUP LIMITED, priority 1989, dated 1991)
